Reference: ChEMBL document CHEMBL2396621, “Design, synthesis and biological evaluation of 2-mercapto-3-phenethylquinazoline bearing anilide fragments as potential antitumor agents: molecular docking study” (2013)

Tests used:
Type in all cases: functional
[1] = Cytotoxicity against human leukemia cells after 48 hrs by coulter counter analysis; settings: Leukemia cell
[2] = Cytotoxicity against human breast cancer cells after 48 hrs by coulter counter analysis; settings: Cancer cell lines
[3] = Cytotoxicity against human renal cancer cells after 48 hrs by coulter counter analysis; settings: Cancer cell lines
[4] = Cytotoxicity against human prostate cancer cells after 48 hrs by coulter counter analysis; settings: Cancer cell lines
[5] = Cytotoxicity against human ovarian cancer cells after 48 hrs by coulter counter analysis; settings: Cancer cell lines
[6] = Cytotoxicity against human melanoma cells after 48 hrs by coulter counter analysis; settings: Melanoma cell
[7] = Cytotoxicity against human CNS cancer cells after 48 hrs by coulter counter analysis; settings: Cancer cell lines
[8] = Cytotoxicity against human colon cancer cells after 48 hrs by coulter counter analysis; settings: Cancer cell lines
[9] = Cytotoxicity against human non-small cell lung cancer cells after 48 hrs by coulter counter analysis; settings: Cancer cell lines
[10] = read-out: LC50 (the source's name)

## O=c1[nH]cc(F)c(=O)[nH]1 [FLUOROURACIL]
[1]
  TGI: > 100 µM
[2]
  GI50: 76.4 µM
  TGI: > 100 µM
[3]
  GI50: 45.6 µM
  TGI: > 100 µM
[4]
  GI50: 22.7 µM
  TGI: > 100 µM
[4]; [10]
  CC50: > 100 µM
[5]
  GI50: 61.4 µM
  TGI: > 100 µM
[6]
  GI50: 70.6 µM
  TGI: > 100 µM
[7]
  TGI: > 100 µM
[7]; [10]
  CC50: > 100 µM
[8]
  GI50: 8.4 µM
  TGI: > 100 µM
[8]; [10]
  CC50: > 100 µM
[9]
  GI50: > 100 µM
  TGI: > 100 µM
[9]; [10]
  CC50: > 100 µM
